Source: patent US20190071670A1, “Methods Of Treatment For Alpha-1 Antitrypsin Deficiency” (Arrowhead Pharmaceuticals, Inc., priority 2016, published 2019)

Tested on: hAAT mRNA
Assay: Liver hAAT mRNA levels in PiZ mice (RT-qPCR)
Type: in vivo, human (expressed in PiZ mice)
Settings: for hAAT mRNA in liver reduced: 6 month old female PiZ mice, single IV 8 mg/kg + 8 mg/kg MLP delivery polymer; for Average relative mRNA level (hAAT) / hAAT mRNA level: PiZ mice liver; for Average relative mRNA level (hAAT): one injection 8 mg/kg + 8 mg/kg MLP delivery polymer; for hAAT mRNA level: single IV 6 mg/kg with 6 mg/kg MLP delivery polymer, relative to mouse β-actin mRNA
Experimental: Compositions comprising double-stranded AAT expression-inhibiting oligomeric compounds were administered to PiZ mice. PiZ mice harbor the human PiZ AAT mutant allele and model human AATD (Carlson et al. Journal of Clinical Investigation 1989). […] Liver hAAT mRNA production was measured at days 3 and 10. Reduced mRNA levels correlated with decreased serum hAAT protein levels, except that mRNA reduction preceded protein reduction by a few days. The level of liver hAAT mRNA production was measured at day 3 and day 10 following a single dose of AAT RNAi agent with MLP delivery polymer in PiZ mice. A sustained decrease in liver hAAT mRNA levels was observed that correlated with the decrease observed in serum hAAT protein levels.
Human AAT protein levels in serum were monitored for 29 days. At the indicated times, blood samples were collected and assayed for hAAT by ELISA. Day 1 samples were collected prior to trigger administration. For mRNA analysis, 3-4 mice were euthanized at each of days 3, 8, 15, 22, and 29. For euthanized mice, cardiac stick were performed for serum isolation for AAT ELISA (200 μl serum). Half of the left lateral liver lobe was collected and snap-freeze in liquid nitrogen for RNA isolation. The remainder of the left lobes were embedded into paraffin blocks for PAS-D staining with hematoxylin as counter-stain. Serum hAAT levels in mice given AAT Duplex Pair SEQ ID NO: 5/6 were 95% reduced on day 8 and remained reduced to day 29, at which time they were 79% reduced. Mice given AAT Duplex Pair SEQ ID NO: 5/6 were euthanized at either day 3, 8, 15, 22 or 29. Mice given saline or Luciferase siRNA control (SEQ ID 7/8) were euthanized on day 29. Levels of hAAT mRNA in the livers were measured by RT-qPCR. The hAAT mRNA in mice given AAT Duplex Pair SEQ ID NO: 5/6 was reduced by 97% on day 3 and remained reduced on day 29, at which time levels were 56% reduced. The size of the globules and the area of the liver covered by globules was digitally quantitated from liver specimens stained with PAS-D. Duplex Pair SEQ ID NO: 5/6 treated mice had 70% smaller globules at day 15 and 62% smaller globules at day 29. The area of the liver covered with globules was 83% reduced on day 15 and 72% reduced on day 29 (FIG. 5).

Substance: Duplex Pair SEQ ID NO: 5/6: double-stranded AAT RNAi agent: modified antisense strand SEQ ID NO: 5 annealed to Chol-TEG sense strand SEQ ID NO: 6 (antisense TGGAACUUGGUGAUGAUAUTT; sense UAUAUAUCAUCACCAAGUUCCAT; Chol-TEG on sense strand; chemical modifications; antisense strand of dsRNA; modified_base 7 /mod_base = “2′-3′ seco corresponding nucleotide”; modified_base 2,4,6,8,10,12,14,16,18 /mod_base = “2′-deoxy-2′-fluoro corresponding nucleoside”; modified_base 3,5,9,11,13,15,17,19 /mod_base = “2′-O-methyl corresponding nucleoside”; modified_base 21 /mod_base = “5′-phosphorothioate corresponding nucleotide”; sense strand of dsRNA; modified_base 2 /mod_base = “2′-hydroxy corresponding nucleoside”; modified_base 4,6,8,10,12,14,16,18,20,22 /mod_base = “2′-deoxy-2′-fluoro corresponding nucleoside”; …)
- hAAT mRNA in liver reduced (day 3): 97%
- hAAT mRNA in liver reduced (day 29): 56%
- Average relative mRNA level (hAAT) (Day 3): 0.030
- Average relative mRNA level (hAAT) (Day 8): 0.032
- Average relative mRNA level (hAAT) (Day 15): 0.158
- Average relative mRNA level (hAAT) (Day 22): 0.221
- Average relative mRNA level (hAAT) (Day 29): 0.439
- hAAT mRNA level (day 3): 0.025 ± 0.02
- hAAT mRNA level (day 10): 0.055 ± 0.02
